Reference: patent US20150175599A1, “FAAH Inhibitors” (Ironwood Pharmaceuticals, Inc., priority 2010, published 2015)

Target: T1, FAAH (Rattus norvegicus, UniProt P97612)
T1 construct: For the assay of FAAH activity in rat brain membrane (RBM) homogenates; tissue Charles River (animals); host or cells: rat whole brain, membrane fraction
T1 sequence (P97612 1-579): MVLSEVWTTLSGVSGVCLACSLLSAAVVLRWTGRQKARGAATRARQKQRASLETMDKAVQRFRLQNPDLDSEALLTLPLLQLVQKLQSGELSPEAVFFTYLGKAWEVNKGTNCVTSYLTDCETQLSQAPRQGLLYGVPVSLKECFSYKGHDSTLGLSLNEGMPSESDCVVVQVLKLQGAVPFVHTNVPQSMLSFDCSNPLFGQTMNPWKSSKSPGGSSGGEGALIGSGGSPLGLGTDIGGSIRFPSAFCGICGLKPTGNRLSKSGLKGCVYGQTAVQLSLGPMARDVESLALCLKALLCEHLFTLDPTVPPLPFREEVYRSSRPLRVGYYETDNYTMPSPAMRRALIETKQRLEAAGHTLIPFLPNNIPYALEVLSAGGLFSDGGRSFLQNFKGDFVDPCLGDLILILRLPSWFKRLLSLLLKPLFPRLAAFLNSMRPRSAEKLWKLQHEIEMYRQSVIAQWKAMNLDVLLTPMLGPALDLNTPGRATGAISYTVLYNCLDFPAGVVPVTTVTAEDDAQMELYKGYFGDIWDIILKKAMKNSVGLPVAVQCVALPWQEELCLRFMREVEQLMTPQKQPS
Experiment: FAAH inhibition, rat brain membrane homogenate assay
Type: biochemical
Details: rat brain homogenate; average activity; read-out: Rat Brain Extract FAAH IC50
Protocol: Adult rats (Charles River CD strain, female, 200 g) were anaesthetized with isofluorane and rapidly decapitated. Each brain was quickly removed and chilled in tubes (3 brains per tube) on ice. About 25 mL of “homogenization buffer” (20 mM HEPES buffer, pH 7.0, with 1 mM MgCl2) was added to 15 to 20 g of brain. The brains were homogenized on ice for 1 minute using an Omni GLH homogenizer (Omni International, Marietta, Ga.). The homogenates were then transferred to three centrifuge tubes and centrifuged at 36,500 g for 20 minutes at 4° C. The supernatant was discarded and each pellet was re-suspended in 25 mL homogenization buffer. The re-suspended material was again centrifuged (36,500 g, 20 minutes at 4° C.). Pellets were combined by re-suspension in 10 mL of homogenization buffer and incubated in a 37° C. water bath for 15 minutes. The tubes were then placed on ice for 5 minutes followed by centrifugation at 36,500 g for 20 minutes at 4° C. The supernatant was discarded and the membrane pellets were then re-suspended in 40 mL of “re-suspension buffer” (50 mM Tris-HCl buffer, pH 7.4, containing 1 mM EDTA and 3 mM MgCl2). A Bradford Protein assay was performed to determine protein concentration. The protein was aliquotted into screw cap Cryo tubes each containing −400 μL, flash-frozen in liquid nitrogen and stored at −80° C. until used for the assay. A similar protocol was used to obtain brain membrane homogenates from mice
FAAH activity was assayed in the respective homogenates described herein (Rat brain, Mouse brain or Human brain) with certain of the exemplary compounds described above using a modification of the method of Omeir et al. (1995 Life Sci. 56:1999) and Fowler et al. (1997 J. Pharmacol. Exp. Ther. 283:729). For the assay of FAAH activity in rat brain membrane (RBM) homogenates, RBM homogenates (7 μg protein in 20 μL final volume of 10 mM Tris pH 6.5) were mixed with 180 μL of a mixture of the following: […] unlabelled anandamide (AEA), 0.03 Ci radio labeled anandamide [ethanolamine 1-^3H](40-60 Ci/mmol; product number ART-626, American Radiolabelled Chemicals, St. Louis, Mo.), 1 mg/mL Bovine Serum Albumin (fatty acid-free BSA, electrophoresis grade, Sigma, St. Louis, Mo.), 10 mM Tris-HCl (pH 6.5), and 1 mM EDTA in the presence and absence of test compounds (vehicle was DMSO at a final concentration of 1%) and incubated for 10 minutes at 37° C. Samples were placed on ice to terminate the reactions.
The ^3H-ethanolamine product and un-reacted ^3H-anandamide substrate were then separated by either: (1) using chloroform/methanol extraction or (2) passing the reaction mixture through a glass fiber filter containing activated charcoal. Samples were extracted with chloroform/methanol by adding 0.4 mL of chloroform/methanol (1:1 v/v), vigorously mixing the samples, and separating the aqueous and organic phases by centrifugation. Radioactivity (corresponding to FAAH-catalyzed breakdown of ^3H-anandamide) found in aliquots (0.2 mL) of the aqueous phase was determined by liquid scintillation counting with quench correction. IC50 values were determined as described by Jonsson et al. (2001 Br. J Pharmacol. 133:1263). Alternatively, reactions were purified using a modification of the solid-phase extraction method described by Wilson et al (2003 Anal. Biochem. 318: 270). This method was modified as follows: after reactions were incubated at 37° C. for 10 minutes and chilled on ice, the reaction mixtures were acidified by adding 10 μL of sodium phosphate solution[0.5M (pH 2.0)]. Next, 90 μL aliquots of the acidified reaction mixtures were applied to activated charcoal (that had been previously washed with methanol as described by Wilson et al. (supra)) containing 80 μL of water on top of a glass fiber filter, centrifuged, and the radioactivity in the eluate was counted as described previously by Wilson et al. (supra). […]

| Structure (SMILES) | IC50 |
| --- | --- |
| C=Cc1ccc2c(c1)c(C(=O)C(=O)Nc1ccnc(OC)c1)c(C)n2Cc1ccc(Cl)cc1 [Compound 27, 2-(1-(4-chlorobenzyl)-2-methyl-5-vinyl-1H-indol-3-yl)-N-(2-methoxypyridin-4-yl)-2-oxoacetamide] | < 0.1 µM |
| COc1cc(NC(=O)C(=O)c2c(C)n(Cc3ccc(Cl)cn3)c3cc(F)c(OC)cc23)ccn1 [Compound 64, 2-(1-((5-chloropyridin-2-yl)methyl)-6-fluoro-5-methoxy-2-methyl-1H-indol-3-yl)-N-(2-methoxypyridin-4-yl)-2-oxoacetamide] | < 0.1 µM |
| COc1cnc2c(c1)c(C(=O)C(=O)Nc1ccnc(OC)c1)c(C)n2Cc1ccc(Cl)cn1 [Compound 41, 2-(1-((5-chloropyridin-2-yl)methyl)-5-methoxy-2-methyl-1H-pyrrolo[2,3-b]pyridin-3-yl)-N-(2-methoxypyridin-4-yl)-2-oxoacetamide] | < 0.1 µM |
| COc1cc(NC(=O)C(=O)c2c(C)n(Cc3ncc(Cl)cc3F)c3cc(Cl)c(OC)cc23)ccn1 [Compound 97, 2-(6-chloro-1-((5-chloro-3-fluoropyridin-2-yl)methyl)-5-methoxy-2-methyl-1H-indol-3-yl)-N-(2-methoxypyridin-4-yl)-2-oxoacetamide] | < 0.1 µM |
| COc1ccc2c(c1)c(C(=O)C(=O)Nc1ccnc(OC)c1)c(C)n2Cc1ccc(S(C)(=O)=O)cc1 [Compound 39, 2-(5-methoxy-2-methyl-1-(4-(methylsulfonyl)benzyl)-1H-indol-3-yl)-N-(2-methoxypyridin-4-yl)-2-oxoacetamide] | 1 to 10 µM |
| COc1ccc(Cn2c(C)c(C(=O)C(=O)Nc3ccnc(OC)c3)c3cc(OC)c(Cl)cc32)nc1 [Compound 98, 2-(6-chloro-5-methoxy-1-((5-methoxypyridin-2-yl)methyl)-2-methyl-1H-indol-3-yl)-N-(2-methoxypyridin-4-yl)-2-oxoacetamide] | < 0.1 µM |
| COc1cc(NC(=O)C(=O)c2c(C)n(Cc3ccc(F)cc3F)c3cc(F)c(OC)cc23)ccn1 [Compound 14, 2-(1-(2,4-difluorobenzyl)-6-fluoro-5-methoxy-2-methyl-1H-indol-3-yl)-N-(2-methoxypyridin-4-yl)-2-oxoacetamide] | < 0.1 µM |
| Cc1c(C(=O)C(=O)Nc2cccc(Cl)c2)c2cc(O)ccc2n1Cc1ccc(Cl)cc1 [Compound 71, 2-(1-(4-chlorobenzyl)-5-hydroxy-2-methyl-1H-indol-3-yl)-N-(3-chlorophenyl)-2-oxoacetamide] | 0.1 to 1 µM |
| CNCc1ccc2c(c1)c(C(=O)C(=O)Nc1ccnc(OC)c1)c(C)n2Cc1ccc(Cl)cc1 [Compound 25, 2-(1-(4-chlorobenzyl)-2-methyl-5-((methylamino)methyl)-1H-indol-3-yl)-N-(2-methoxypyridin-4-yl)-2-oxoacetamide] | 1 to 10 µM |
| COc1cc(NC(=O)C(=O)c2c(C)n(Cc3ncc(Cl)cc3Cl)c3cc(F)c(OC)cc23)ccn1 [Compound 13, 2-(1-((3,5-dichloropyridin-2-yl)methyl)-6-fluoro-5-methoxy-2-methyl-1H-indol-3-yl)-N-(2-methoxypyridin-4-yl)-2-oxoacetamide] | < 0.1 µM |
| COc1cc(NC(=O)C(=O)c2c(C)n(Cc3ccc(Cl)cc3)c3cnccc23)ccn1 [Compound 35, 2-(1-(4-chlorobenzyl)-2-methyl-1H-pyrrolo[2,3-c]pyridin-3-yl)-N-(2-methoxypyridin-4-yl)-2-oxoacetamide] | 0.1 to 1 µM |
| COc1ccc2c(C(=O)C(=O)Nc3ccnc(OC)c3)c(C)n(Cc3ccc(Cl)cc3)c2c1 [Compound 48, 2-(1-(4-chlorobenzyl)-6-methoxy-2-methyl-1H-indol-3-yl)-N-(2-methoxypyridin-4-yl)-2-oxoacetamide] | < 0.1 µM |
| COc1cc(NC(=O)C(=O)c2c(C)n(Cc3ccc(Cl)cc3)c3cc(Cl)c(OC)cc23)ccn1 [Compound 55, 2-(6-chloro-1-(4-chlorobenzyl)-5-methoxy-2-methyl-1H-indol-3-yl)-N-(2-methoxypyridin-4-yl)-2-oxoacetamide] | < 0.1 µM |
| COc1cnc2c(c1)c(C(=O)C(=O)Nc1ccnc(OC)c1)c(C)n2Cc1ccc(Cl)cc1 [Compound 38, 2-(1-(4-chlorobenzyl)-5-methoxy-2-methyl-1H-pyrrolo[2,3-b]pyridin-3-yl)-N-(2-methoxypyridin-4-yl)-2-oxoacetamide] | < 0.1 µM |
| COc1ccc2c(c1)c(C(=O)C(=O)Nc1ccnc(OC)c1)c(C)n2Cc1cnc(Cl)cn1 [Compound 12, 2-(1-((5-chloropyrazin-2-yl)methyl)-5-methoxy-2-methyl-1H-indol-3-yl)-N-(2-methoxypyridin-4-yl)-2-oxoacetamide] | < 0.1 µM |
| COc1cc(NC(=O)C(=O)c2c(C)n(Cc3ccc(Cl)cc3)c3c(OC)cccc23)ccn1 [Compound 51, 2-(1-(4-chlorobenzyl)-7-methoxy-2-methyl-1H-indol-3-yl)-N-(2-methoxypyridin-4-yl)-2-oxoacetamide] | 1 to 10 µM |
| COc1cc(NC(=O)C(=O)c2c(C)n(Cc3ccc(Cl)cc3)c3ccc(OC)c(F)c23)ccn1 [Compound 59, 2-(1-(4-chlorobenzyl)-4-fluoro-5-methoxy-2-methyl-1H-indol-3-yl)-N-(2-methoxypyridin-4-yl)-2-oxoacetamide] | < 0.1 µM |
| COc1cc(NC(=O)C(=O)c2c(C)n(Cc3ccc(Cl)cn3)c3ccc(Cl)cc23)ccn1 [Compound 63, 2-(5-chloro-1-((5-chloropyridin-2-yl)methyl)-2-methyl-1H-indol-3-yl)-N-(2-methoxypyridin-4-yl)-2-oxoacetamide] | < 0.1 µM |
| COc1cnc2c(c1)c(C(=O)C(=O)Nc1ccnc(OC)c1)c(C)n2Cc1ncc(Cl)cc1F [Compound 34, 2-(1-((5-chloro-3-fluoropyridin-2-yl)methyl)-5-methoxy-2-methyl-1H-pyrrolo[2,3-b]pyridin-3-yl)-N-(2-methoxypyridin-4-yl)-2-oxoacetamide] | < 0.1 µM |
| COc1cc(NC(=O)C(=O)c2c(C)n(Cc3ccc(Cl)cc3)c3ccc(O)cc23)ccn1 [Compound 2, 2-(1-(4-chlorobenzyl)-5-hydroxy-2-methyl-1H-indol-3-yl)-N-(2-methoxypyridin-4-yl)-2-oxoacetamide] | < 0.1 µM |
| COc1cc(NC(=O)C(=O)c2c(C)n(Cc3ccc(Cl)cn3)c3cc(Cl)c(OC)cc23)ccn1 [Compound 60, 2-(6-chloro-1-((5-chloropyridin-2-yl)methyl)-5-methoxy-2-methyl-1H-indol-3-yl)-N-(2-methoxypyridin-4-yl)-2-oxoacetamide] | < 0.1 µM |
